{"source": "paper PMC4535450", "about": "“Two enzymes with redundant fructose bisphosphatase activity sustain gluconeogenesis and virulence in Mycobacterium tuberculosis” (Nature Communications, 2015)", "target": "GLPX (Rv1099c) (Mycobacterium tuberculosis, UniProt P9WN21)", "type": "biochemical", "data": [{"smiles": "O=P(O)(O)OC[C@H]1OC(O)(COP(=O)(O)O)[C@@H](O)[C@@H]1O", "note": "(stereo partly shown) [fructose 1,6-bisphosphate]", "values": [{"measurement": "coupled spectrophotometric assay (phosphoglucoisomerase / G6P dehydrogenase, NAD)", "value": "Expression of GLPX in ΔglpXΔgpm2 provided lithium-sensitive FBPase activity"}]}]}
